Key:
[1] = system: HepG2-cells (hepatocytes); assay: Selective enrichment of fluorescence-marked conjugate in HepG2-cells, fluorescence microscopy; format: cell-based; conditions: 50 uM, 37° C., 10 min., washed, treated with 5% beef-serum albumin
Protocol: In order to control the selective enrichment of the LysoPE-DOCA-compound HepG2-cells (hepatocytes) were incubated at 37° C. with a fluorescence-marked ursodeoxycholate-1-palmitoyl, 2-NBD-PE-conjugate (at 50 uM) for 10 min., washed, and subsequently treated with 5% beef-serum albumin in order to remove the conjugate from the exterior plasma membrane of the cells. Subsequently the cells are microscopic controlled in phase contrast and in fluorescent light.

colon mucosa = conditions: topic application, rat models, colitis induced by acetic acid and trinitro-benzosulfonic acid; cited from earlier work
colitis ulcerosa = conditions: cited from earlier work
[2] = oral, retarding packaged form, compared to placebo control group

Substance | enrichment in the cells under fluorescent-microscopic observation [1] | protection of colon mucosa from induced colitis (colon mucosa) | inflammatory activity of colitis ulcerosa (colitis ulcerosa; oral, retarding packaged form with release in the lower small intestine and the colon) | improvement of the clinical activity on average (colitis ulcerosa; [2]) | patients treated in whom the improvement of clinical activity was achieved (colitis ulcerosa; [2]) | patients reaching clinical remission (colitis ulcerosa; within three months)
ursodeoxycholate-1-palmitoyl, 2-NBD-PE-conjugate | intense yellow-green coloration in the cytoplasm but not in the core of the cell |  |  |  |  | 
phosphatidyl choline |  | protecting colon mucosa from colitis | significantly suppresses the inflammatory activity | 70% | 90% | more than half of the patients reached even clinical remission

From patent US8883426B2, “Use of therapeutically effective lipids and method for producing organ-/tissue-specific therapeutically effective lipids” (PAT GmbH, priority 2005, dated 2014)
